This note sets out measurements from ChEMBL document CHEMBL6078705 (Bioorg Med Chem, 2025).

Active and inactive are the calls of the source. No cut-off for these calls is given here.

Data set [1] relates to Mus musculus. Kind of data set: Vascular disrupting activity in female BALB/c mouse implanted with orthotropic 4T1-Luc cells assessed as reduction in bioluminescence imaging signal at 50 mg/kg, ip measured at 4 hrs by imaging analysis relative to control. It counts as functional. Also on record: scale not given: the % may be the effect or the level left.
Data set [2] has as its system Mus musculus. Kind of data set: Vascular disrupting activity in female BALB/c mouse implanted with orthotropic 4T1-Luc cells assessed as reduction in bioluminescence imaging signal at 20 mg/kg, ip measured at 24 hrs by imaging analysis relative to control. It counts as functional. Also on record: scale not given: the % may be the effect or the level left.
Data set [3] has as its system Mus musculus. The experiment in a line: Vascular disrupting activity in female BALB/c mouse implanted with orthotropic 4T1-Luc cells assessed as reduction in bioluminescence imaging signal at 20 mg/kg, ip measured at 4 hrs by imaging analysis. Format: functional, organism-based.
Data set [4] in a line: Toxicity in female BALB/c mouse implanted with orthotropic 4T1-Luc cells assessed as animal death at >50 mg/kg, ip measured within 24 hrs. It counts as organism-based. The settings on record: in vivo.
Data set [5] can be described thus: Inhibition of bovine brain tubulin polymerization preincubated for 15 mins followed by GTP addition and measured after 20 mins by spectrophotometric analysis. Also on record: species or system Bos taurus.
For data set [6], the system named is MCF7. The experiment in a line: Cytotoxicity against human MCF7 cells assessed as cell growth inhibition. It counts as functional.
In data set [7] the test system is MDA-MB-231. Kind of data set: Cytotoxicity against human MDA-MB-231 cells assessed as cell growth inhibition incubated for 96 hrs by SRB assay. Format: functional. (In SRB staining, fixed cells bind dye roughly in proportion to their protein.)
For data set [8], the target named is Tubulin (Homo sapiens) (UniProt P68371+Q9H4B7+P0DPH7+P68366+Q13509+Q71U36+P04350+Q3ZCM7+P07437+P68363+Q9BQE3+Q6PEY2+Q13885+Q9BVA1+Q9BUF5). The experiment in a line: Inhibition of [3H]Colchicine binding to tubulin (unknown origin) at 5 uM incubated for 10 mins in presence of GTP by Beckman scintillation counter relative to control. It counts as protein-complex assay.

In data set [9] the test system is Mus musculus. Kind of data set: Vascular disrupting agent in female syngenic BALB/c mouse implanted with orthotropic RENCA-Luc cells assessed as reduction in bioluminescence imaging signal at 100 mg/kg, ip measured at 24 hrs by imaging analysis. It counts as functional, organism-based.
Data set [10] deals with Mus musculus. The experiment in a line: Vascular disrupting agent in female syngenic BALB/c mouse implanted with orthotropic RENCA-Luc cells assessed as reduction in bioluminescence imaging signal at 100 mg/kg, ip measured at 4 hrs by imaging analysis relative to control. Format: functional. Also on record: scale not given: the % may be the effect or the level left.
Data set [11] in a line: Toxicity in female syngenic BALB/c mouse implanted with orthotropic RENCA-Luc cells assessed as animal death at 50 to 100 mg/kg, ip measured after 24 hrs. The settings on record: in vivo, dose 50-100 mg/kg. It counts as organism-based.
Data set [12] concerns Mus musculus. Kind of data set: Vascular disrupting agent in female syngenic BALB/c mouse implanted with orthotropic RENCA-Luc cells assessed as reduction in bioluminescence imaging signal at 50 mg/kg, ip measured at 4 hrs by imaging analysis relative to control. Format: functional. Also on record: scale not given: the % may be the effect or the level left.
Data set [13] deals with Mus musculus. The experiment in a line: Vascular disrupting agent in female syngenic BALB/c mouse implanted with orthotropic RENCA-Luc cells assessed as reduction in bioluminescence imaging signal at 50 mg/kg, ip measured at 24 hrs by imaging analysis. It counts as functional, organism-based.

On to `COc1ccc(-c2[nH]c3c(OP(=O)([O-])[O-])c(OC)ccc3c2C(=O)c2cc(OC)c(OC)c(OC)c2)cc1OC.[Na+].[Na+]`, for which the Activity is recorded as 95% in data set [1], 50% in data set [2] and “Toxic” in data set [4]. For the same molecule, in data set [3], the outcome was inactive.
Turning to `COc1ccc(-c2[nH]c3c(OC)c(OC)c(OC)cc3c2C(=O)c2cc(OC)c(OC)c(OC)c2)cc1O`, the IC50 in data set [5] is > 20000 nM. For the same molecule, the GI50 in data set [6] was > 5000 nM.
`COc1cccc(C(=O)c2c(-c3ccc(OC)c(O)c3)[nH]c3cc(OC)ccc23)c1` showed an IC50 in data set [5] of 4200 nM. The figures for the GI50 in data set [6] and in [7] were 490 nM and 537 nM, respectively. Besides, the inhibition in data set [8] stood at 33%.
On to `COc1ccc2c(C(=O)c3cc(OC)c(OC)c(OC)c3)c(-c3ccc(OC)c(N)c3)[nH]c2c1`, for which 430 nM corresponded to half-maximal inhibition in data set [5] (IC50). Further, the results for the 50% growth inhibitory concentration (GI50) in data set [6] and in data set [7] were 20 nM and 36.9 nM, respectively. The inhibition in [8] was 65%.
Turning to `COc1ccc(-c2[nH]c3c(OC)c(OC)ccc3c2C(=O)c2cc(OC)c(OC)c(OC)c2)cc1OP(=O)([O-])[O-].[Na+].[Na+]`, the Activity result is “Active; Slight Recovery Observed” in data set [9]; 91% in data set [10]; “Non-toxic” in data set [11]; 15% in [12]; “Active; Little Change Observed Relative To 4 Hrs Compound Treatment” in [13].
Turning to `COc1ccc(-c2[nH]c3c(O)c(OC)ccc3c2C(=O)c2cc(OC)c(OC)c(OC)c2)cc1`, 860 nM corresponded to half-maximal inhibition in data set [5] (IC50). Moreover, the GI50 in data set [6] is 6 nM; in data set [7] it was 170 nM.
Regarding `COc1ccc2c(C(=O)c3cc(Cl)cc(Cl)c3)c(-c3ccc(OC)c(O)c3)[nH]c2c1`, the IC50 in [5] came out at 740 nM. Also, the GI50 in data set [6] was determined as 240 nM; in [7], 133 nM. In addition, the inhibition in data set [8] was found to be 80%.
In turn, `COc1ccc2c(C(=O)c3cccc(Cl)c3)c(-c3ccc(OC)c(O)c3)[nH]c2c1` yielded an IC50 in data set [5] of 450 nM. The GI50 in data set [6] came out at 470 nM; in data set [7] it was 319 nM. The inhibition in data set [8] worked out at 69%.
`COc1ccc2c(C(=O)c3cc(OC)c(OC)c(OC)c3)c(-c3ccc(OC)c(Br)c3)[nH]c2c1`: in data set [5], the midpoint of inhibition, the IC50, lay at 1200 nM. The results for the GI50 in data set [6] and in [7] were 413 nM and 483 nM, respectively. In data set [8], the inhibition was found to be 34%.
As for `COc1ccc(-c2[nH]c3cc(OC)c(OC)c(OC)c3c2C(=O)c2cc(OC)c(OC)c(OC)c2)cc1`, in data set [5], the IC50 is > 5000 nM. In addition, the GI50 in data set [6] was 1500 nM.
For `COc1cccc(-c2[nH]c3cc(OC)c(OC)c(OC)c3c2C(=O)c2cc(OC)c(OC)c(OC)c2)c1`, in data set [5], the IC50 is > 5000 nM. Moreover, the GI50 in [6] is > 5000 nM.
In turn, `COc1ccc(-c2[nH]c3c(OC)c(OC)ccc3c2C(=O)c2cc(OC)c(OC)c(OC)c2)cc1O` had an IC50 in data set [5] of 760 nM. Also, the GI50 in data set [6] was determined as 3.5 nM; in data set [7], 14 nM.
Molecule `COc1ccccc1-c1[nH]c2cc(OC)c(OC)c(OC)c2c1C(=O)c1cc(OC)c(OC)c(OC)c1` had an IC50 in data set [5] of 920 nM. Moreover, the GI50 in [6] came to 85 nM; in data set [7], 6980 nM. Besides, the inhibition in data set [8] was found to be 70%.
For `COc1ccc2c(C(=O)c3cccc(F)c3)c(-c3ccc(OC)c(O)c3)[nH]c2c1` the same measures were 1600 nM, 2500 nM, 7110 nM and 25%.
For `COc1ccc(/C=C\c2cc(OC)c(OC)c(OC)c2)cc1O` [COMBRETASTATIN A4], half-maximal inhibition in data set [5] (IC50) required 910 nM. The GI50 in data set [6] was found to be 9.5 nM; in [7] it was 1.7 nM.
Take `COc1ccc(-c2[nH]c3c(C)c(C)ccc3c2C(=O)c2cc(OC)c(OC)c(OC)c2)cc1O`: the IC50 in data set [5] is > 20000 nM. Besides, the GI50 in data set [6] was > 5000 nM.
The molecule `COc1ccc2c(C(=O)c3cc(F)cc(F)c3)c(-c3ccc(OC)c(O)c3)[nH]c2c1` gave an IC50 in data set [5] of 820 nM. The GI50 in data set [6] is 1500 nM; in data set [7] it was 3170 nM. The inhibition in [8] came out at 50%.
As to `COc1ccc2c(C(=O)c3c(F)c(F)c(F)c(F)c3F)c(-c3ccc(OC)c(O)c3)[nH]c2c1`, the IC50 in data set [5] was > 20000 nM. The GI50 in data set [6] was > 5000 nM.
For the molecule `COc1ccc2c(C(=O)c3cc(OC)c(OC)c(OC)c3)c(-c3ccc(OC)c([N+](=O)[O-])c3)[nH]c2c1`, 770 nM corresponded to half-maximal inhibition in data set [5] (IC50). For the same molecule, the results for the GI50 in data set [6] and in data set [7] were 120 nM and 275 nM, respectively. Besides, the inhibition in data set [8] is 24%.

As usually defined, the IC50 is the concentration that inhibits the measured activity by half. By GI50 is commonly meant the concentration at which growth is held to half of that of the control. As usually defined, the inhibition is the relative decrease from the control value, in per cent.
